# Results taken from PMC9295786, “Discovery of potent BET bromodomain 1 stereoselective inhibitors using DNA-encoded chemical library selections” (Proceedings of the National Academy of Sciences of the …, 2022).
# Where two headings read alike, the source gives them in different places.
# What was measured:
# [1] = Metabolic stability assay in liver microsomes (HLM); assay type: in vitro ADME; details: human liver microsomes 0.5 mg protein/mL, compound 2.0 μM, NADPH 1.0 mM; read-out: HLM t1/2 (half-life)
# [2] = Metabolic stability assay in liver microsomes (MLM); assay type: in vitro ADME; details: mouse liver microsomes 0.5 mg protein/mL, compound 2.0 μM, NADPH 1.0 mM; read-out: MLM t1/2 (half-life)
# THP1 cells = experiment: Cell viability by CellTiterGlo; assay type: cell-based; details: 72 h of treatment, CellTiterGlo, normalized to DMSO, read-out: Viability IC50 THP1
# BRDT-BD1 [3] = target: T1, BRDT-BD1 (Homo sapiens, UniProt Q58F21); experiment: AlphaScreen competition assay with biotinylated JQ1; assay type: binding; parameters: the first bromodomain of BRDT (BRDT-BD1); made in house; host or cells: bacteria (pET15b or pET28b vector)
# BRD4-BD1 [4] = target: T2, BRD4-BD1 (Homo sapiens, UniProt O60885); experiment: as above; assay type: binding; parameters: the bromodomain 1 (BD1) of BRD4; made in house; host or cells: bacteria (pET15b or pET28b vector); details: for BRD4-BD1 vs. BRD4-BD2 fold (BRD4-BD1 selectivity): ratio of AlphaScreen IC50 values, NE = not efficient; for IC50: read-out: BRD4-BD1 IC50
# BRDT-BD2 = target: T3, BRDT-BD2 (Homo sapiens, UniProt Q58F21); experiment: as above; assay type: binding
# T3 construct: two similar tandem bromodomains (BD1 and BD2); made in house; host or cells: bacteria (pET15b or pET28b vector)
# MOLM-13 cells [5] = experiment: Cell viability by CellTiterGlo; assay type: cell-based; details: 72 h of treatment, CellTiterGlo, normalized to DMSO, read-out: Viability IC50 MOLM-13
# BRD4-BD2 = target: T4, BRD4-BD2 (Homo sapiens, UniProt O60885); experiment: AlphaScreen competition assay with biotinylated JQ1; assay type: binding; details: read-out: BRD4-BD2 IC50
# T4 construct: two similar tandem bromodomains (BD1 and BD2); made in house; host or cells: bacteria (pET15b or pET28b vector)
# MV4;11 cells [6] = experiment: Cell viability by CellTiterGlo; assay type: cell-based; details: for IC50: 72 h of treatment, CellTiterGlo, normalized to DMSO, read-out: Viability IC50 MV4;11
# Kasumi1 cells = experiment: Cell viability by CellTiterGlo; assay type: cell-based; details: 72 h of treatment, CellTiterGlo, normalized to DMSO, read-out: Viability IC50 Kasumi1
# BRD3-BD1 = target: T5, BRD3-BD1 (Homo sapiens, UniProt Q15059); experiment: BromoKdELECT assay; assay type: binding
# T5 construct: two similar tandem bromodomains (BD1 and BD2); purchased Eurofins DiscoverX (Fremont, CA); host or cells: E. coli host derived from the BL21 strain, T7 phage
# T5 sequence (Q15059 34-140 limits assumed): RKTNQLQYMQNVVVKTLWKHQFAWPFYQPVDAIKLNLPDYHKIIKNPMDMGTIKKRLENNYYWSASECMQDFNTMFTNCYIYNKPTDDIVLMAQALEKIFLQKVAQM
# MV4;11 cells [7] = experiment: Cell cycle analysis by flow cytometry; assay type: cell-based; details: 24 h of treatment at the IC50
# MOLM-13 cells [8] = experiment: Cell cycle analysis by flow cytometry; assay type: cell-based; details: 24 h of treatment at the IC50
# MOLM-13 cells [9] = experiment: Apoptosis detection (Annexin V) by flow cytometry; assay type: cell-based; details: 72 h of treatment
# BRD4-BD1 [10] = target: T2, BRD4-BD1; experiment: BromoKdELECT assay; assay type: binding; parameters: the bromodomain 1 (BD1) of BRD4; purchased Eurofins DiscoverX (Fremont, CA); host or cells: E. coli host derived from the BL21 strain, T7 phage
# BRD2-BD1 [11] = target: T6, BRD2-BD1 (Homo sapiens, UniProt P25440); experiment: BromoKdELECT assay; assay type: binding
# T6 construct: two similar tandem bromodomains (BD1 and BD2); purchased Eurofins DiscoverX (Fremont, CA); host or cells: E. coli host derived from the BL21 strain, T7 phage
# T6 sequence (P25440 74-180 limits assumed): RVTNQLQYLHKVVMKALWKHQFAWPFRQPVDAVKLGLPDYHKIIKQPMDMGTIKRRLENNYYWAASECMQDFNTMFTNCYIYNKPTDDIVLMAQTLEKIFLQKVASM
# BRD2-BD2 = target: T7, BRD2-BD2 (Homo sapiens, UniProt P25440); experiment: BromoKdELECT assay; assay type: binding
# T7 construct: two similar tandem bromodomains (BD1 and BD2); purchased Eurofins DiscoverX (Fremont, CA); host or cells: E. coli host derived from the BL21 strain, T7 phage
# T7 sequence (P25440 344-453 limits assumed): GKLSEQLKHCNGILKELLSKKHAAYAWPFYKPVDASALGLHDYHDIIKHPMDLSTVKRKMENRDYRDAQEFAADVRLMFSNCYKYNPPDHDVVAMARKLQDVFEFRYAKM
# BRD3-BD2 = target: T8, BRD3-BD2 (Homo sapiens, UniProt Q15059); experiment: BromoKdELECT assay; assay type: binding
# T8 construct: two similar tandem bromodomains (BD1 and BD2); purchased Eurofins DiscoverX (Fremont, CA); host or cells: E. coli host derived from the BL21 strain, T7 phage
# T8 sequence (Q15059 306-415 limits assumed): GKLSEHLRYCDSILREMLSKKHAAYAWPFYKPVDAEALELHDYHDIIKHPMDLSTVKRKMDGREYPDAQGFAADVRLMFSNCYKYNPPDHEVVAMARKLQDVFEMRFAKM
# MV4;11 cells [12] = experiment: Apoptosis detection (Annexin V) by flow cytometry; assay type: cell-based; details: 72 h of treatment
# [13] = test system: MYC expression in MV4;11 cells; experiment: MYC expression by RT-qPCR; assay type: cell-based; details: 8 h of treatment
# [14] = test system: MYC expression in MOLM-13 cells; experiment: MYC expression by RT-qPCR; assay type: cell-based; details: 8 h of treatment
# BRDT-BD1 [15] = target: T1, BRDT-BD1; experiment: BromoKdELECT assay; assay type: binding; parameters: the first bromodomain of BRDT (BRDT-BD1); purchased Eurofins DiscoverX (Fremont, CA); host or cells: E. coli host derived from the BL21 strain, T7 phage
# TAF1-BD2 = details: BROMOscan profile; cited from earlier work
# TAF1L-BD2 = details: BROMOscan profile; cited from earlier work
# BRD4-BD1 [16] = target: T2, BRD4-BD1; parameters: the bromodomain 1 (BD1) of BRD4; purchased Eurofins DiscoverX (Fremont, CA); host or cells: E. coli host derived from the BL21 strain, T7 phage; details: read-out: IC50 BRD4-BD1 AlphaScreen; cited from earlier work
# BRD2-BD1 [17] = target: T6, BRD2-BD1; details: cited from earlier work
# BRD4-BD1 [18] = target: T2, BRD4-BD1; parameters: the bromodomain 1 (BD1) of BRD4; purchased Eurofins DiscoverX (Fremont, CA); host or cells: E. coli host derived from the BL21 strain, T7 phage; details: BROMOscan assays; cited from earlier work
# BD2 = test system: BD2; parameters: method as in PMID 24391744; details: cited from earlier work
smiles,measurement,setting,value
"Cc1nnc2n1-c1ccc(Cl)cc1C(c1ccccc1)=NC2 [Alprazolam, reference compound]",half-life at 2 μM,[1],864 min
same,half-life at 2 μM,[2],302 min
CNC(=O)[C@H](CC1CCN(C(=O)Cc2ccc3[nH]c(=O)cc(C)c3c2)CC1)NC(=O)c1ccc(-c2ccc(C)cc2C)cn1 [CDD-786],IC50,"THP1 cells; Homo sapiens, THP-1",1200 nM
same,IC50,BRDT-BD1 [3],96.6 nM
same,BRDT-BD1 vs. BRDT-BD2 fold (BRDT-BD1 selectivity),"BRDT-BD1 [3]; ratio of AlphaScreen IC50 values, NE = not efficient",65 fold
same,BRD4-BD1 vs. BRD4-BD2 fold (BRD4-BD1 selectivity),BRD4-BD1 [4],275 fold
same,IC50,BRD4-BD1 [4],22.2 nM
same,IC50,BRDT-BD2; read-out: BRDT-BD2 IC50,6300 nM
same,IC50,"MOLM-13 cells [5]; Homo sapiens, MOLM-13",729 nM
same,IC50,BRD4-BD2,6100 nM
same,IC50,"MV4;11 cells [6]; Homo sapiens, MV4-11",853 nM
same,IC50,"Kasumi1 cells; Homo sapiens, Kasumi 1",262 nM
CNC(=O)[C@@H](CC1CCN(C(=O)Cc2ccc3[nH]c(=O)cc(C)c3c2)CC1)NC(=O)c1ccc(-c2ccc(C)cc2C)cn1 [CDD-787],IC50,"THP1 cells; Homo sapiens, THP-1",11.8 nM
same,Kd,BRD3-BD1; BromoKdELECT,0.13 nM
same,IC50,"BRD3-BD1; BromoKdELECT, read-out: IC50 against BRD3-BD1",0.13 nM
same,BRD3-BD1 selectivity,"BRD3-BD1; over BRD3-BD2, BromoKdELECT Kd ratio","5,920 fold"
same,"Effect on the cell cycle, MV4;11",MV4;11 cells [7],G1 arrest
same,"Effect on the cell cycle, MOLM-13",MOLM-13 cells [8],G1 arrest
same,"Induction of apoptosis (Annexin V+ cells), MOLM-13",MOLM-13 cells [9],apoptosis
same,Kd,BRD4-BD1 [10],0.29 nM
same,IC50,BRD4-BD1 [10]; read-out: IC50 against BRD4-BD1,0.29 nM
same,Kd,BRD2-BD1 [11]; BromoKdELECT,0.26 nM
same,IC50,"BRD2-BD1 [11]; BromoKdELECT, read-out: IC50 against BRD2-BDT1",0.26 nM
same,BRD2-BD1 selectivity,"BRD2-BD1 [11]; over BRD2-BD2, BromoKdELECT Kd ratio",420 fold
same,Kd,BRD2-BD2,110 nM
same,Kd,BRD3-BD2,770 nM
same,"Induction of apoptosis (Annexin V+ cells), MV4;11",MV4;11 cells [12],apoptosis
same,IC50,BRDT-BD1 [3],2.1 nM
same,fold more potent than the S-enantiomer (CDD-786) in inhibiting BRDT-BD1,BRDT-BD1 [3],50 fold
same,fold more potent than (+)-JQ1 for BRDT-BD1,BRDT-BD1 [3]; AlphaScreen,22 fold
same,fold more selective than (+)-JQ1 for BRDT-BD1,BRDT-BD1 [3]; AlphaScreen,"~2,200 fold"
same,BRD4-BD1 vs. BRD4-BD2 fold (BRD4-BD1 selectivity),BRD4-BD1 [4],3909 fold
same,IC50,BRD4-BD1 [4],3.3 nM
same,"MYC expression, MV4;11",[13],suppressed
same,"MYC expression, MOLM-13",[14],suppressed
same,IC50,BRDT-BD2; read-out: BRDT-BD2 IC50,10400 nM
same,IC50,"MOLM-13 cells [5]; Homo sapiens, MOLM-13",16 nM
same,half-life at 2 μM,[1],33 min
same,IC50,BRD4-BD2,12900 nM
same,Kd,BRDT-BD1 [15],0.22 nM
same,IC50,BRDT-BD1 [15]; read-out: IC50 against BRDT-BD1,0.22 nM
same,half-life at 2 μM,[2],13 min
same,IC50,"MV4;11 cells [6]; Homo sapiens, MV4-11",8.3 nM
same,EC50,"MV4;11 cells [6]; Homo sapiens, MV4-11, Table S6, NE = not efficient, read-out: MV4-11 EC50 (viability)",8 nM
same,IC50,"Kasumi1 cells; Homo sapiens, Kasumi 1",8.4 nM
CNC(=O)[C@@H](CC1CCN(C(=O)Cc2ccc3[nH]c(=O)cc(C)c3c2)CC1)NC(=O)c1ccc(-c2ccccc2)cn1 [CDD-956],"Effect on the cell cycle, MV4;11",MV4;11 cells [7],G1 arrest
same,"Induction of apoptosis (Annexin V+ cells), MOLM-13",MOLM-13 cells [9],apoptosis
same,"Induction of apoptosis (Annexin V+ cells), MV4;11",MV4;11 cells [12],apoptosis
same,"MYC expression, MV4;11",[13],suppressed
same,"MYC expression, MOLM-13",[14],suppressed
same,half-life at 2 μM,[2],35 min
Cc1cc2c(-c3ccco3)cnc(N[C@@H]3CCN(C)C[C@H]3C(=O)NC3CCCCC3)c2[nH]c1=O [GSK789],Kd,TAF1-BD2,50 nM
same,Kd,TAF1L-BD2,398 nM
"Cc1sc2c(c1C)C(c1ccc(Cl)cc1)=N[C@@H](CC(=O)OC(C)(C)C)c1nnc(C)n1-2 [JQ1, reference compound]",IC50,THP1 cells,130 nM
same,IC50,MOLM-13 cells [5],130 nM
same,IC50,MV4;11 cells [6],61.9 nM
same,IC50,Kasumi1 cells,29.8 nM
COc1ccccc1S(=O)(=O)Nc1ccc2c3c(cc(-n4cnc(C)c4)nc13)C(=O)N2C [LT052],IC50,BRD4-BD1 [16],88 nM
same,IC50,BRD2-BD1 [17],9000 nM
same,selectivity for BRD4-BD1 over BRD4-BD2,BRD4-BD1 [18],138 fold
COc1cc(OC)c2c(=O)[nH]c(-c3cc(C)c(OCCO)c(C)c3)nc2c1 [RVX-208],IC50,"BRDT-BD2; AlphaScreen, read-out: IC50 in our BRDT-BD2 AlphaScreen assay",2000 nM
same,selectivity over BD1 domains,BD2; BD2 over BD1,~10 fold
same,BD2 potency,BD2,> 100 nM
